Measurements as given in PubChem BioAssay AID1918949 (Molecular Pharmacology Branch, DTP, NCI, 2023).
Where “and” joins values, the source holds several entries; their conditions need not be identical. Equal values may be shown once. Blank lines part the entries; values can stand above or below the molecule they belong to.

System: K24384-001-R-PDC complex spheroid viability
Test: Anticancer human tumor K24384-001-R-PDC patient-derived pancreatic adenocarcinoma cell line growth inhibition
Settings: for viability, T/C: stronger effect = lower value
Summary of the method: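 Complex spheroids of tumor cells with HUVEC and human MSCs, exposed to iadademstat combined with other agents. Each agent tested in half-log steps from near clinical Cmax (else 10 microM top), DMSO ≤0.25%.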

[1] = curve of first compound, second compound 0.1 µM
[2] = curve of first compound, second compound 0.316 µM
[3] = curve of first compound, second compound 1 µM
[4] = curve of first compound, second compound 3.16 µM
[5] = curve of first compound, second compound 10 µM
[6] = second compound 0.1 µM, first compound 0.0316 µM
[7] = second compound 0.1 µM, first compound 0.1 µM
[8] = second compound 0.316 µM, first compound 0.0316 µM
[9] = second compound 0.316 µM, first compound 0.1 µM
[10] = second compound 1 µM, first compound 0.0316 µM
[11] = second compound 1 µM, first compound 0.1 µM
[12] = second compound 3.16 µM, first compound 0.0316 µM
[13] = second compound 3.16 µM, first compound 0.1 µM
[14] = second compound 10 µM, first compound 0.0316 µM
[15] = second compound 10 µM, first compound 0.1 µM
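Also: spheroids exposed to agents for seven days before luminescence viability reading.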
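For viability, T/C in this document: 100% = DMSO vehicle control viability.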

SMILES: CC(C)CC(NC(=O)CNC(=O)c1cc(Cl)ccc1Cl)B1OC(=O)CC(CC(=O)O)(C(=O)O)O1 (configuration not stated) + NC1CCC(NC2CC2c2ccccc2)CC1
- IC50 [1]: 7.55 nM
- IC50 [2]: 5.78 nM
- IC50 [3]: 6.08 nM
- IC50 [4]: 5.59 nM
- IC50 [5]: 5 nM
- viability, T/C (second compound 0.1 µM, first compound 0.000316 µM): 100%
- viability, T/C (second compound 0.1 µM, first compound 0.001 µM): 90.2%
- viability, T/C (second compound 0.1 µM, first compound 0.00316 µM): 82.7%
- viability, T/C (second compound 0.1 µM, first compound 0.01 µM): 40.4%
- viability, T/C [6]: 3.3%
- viability, T/C [7]: 0.72%
- viability, T/C (second compound 0.316 µM, first compound 0.000316 µM): 97.4%
- viability, T/C (second compound 0.316 µM, first compound 0.001 µM): 91.9%
- viability, T/C (second compound 0.316 µM, first compound 0.00316 µM): 75.4%
- viability, T/C (second compound 0.316 µM, first compound 0.01 µM): 27.2%
- viability, T/C [8]: 3.1%
- viability, T/C [9]: 0.77%
- viability, T/C (second compound 1 µM, first compound 0.000316 µM): 89.9%
- viability, T/C (second compound 1 µM, first compound 0.001 µM): 87.7%
- viability, T/C (second compound 1 µM, first compound 0.00316 µM): 75.1%
- viability, T/C (second compound 1 µM, first compound 0.01 µM): 30.9%
- viability, T/C [10]: 4.13%
- viability, T/C [11]: 0.7%
- viability, T/C (second compound 3.16 µM, first compound 0.000316 µM): 92.1%
- viability, T/C (second compound 3.16 µM, first compound 0.001 µM): 78.3%
- viability, T/C (second compound 3.16 µM, first compound 0.00316 µM): 74.1%
- viability, T/C (second compound 3.16 µM, first compound 0.01 µM): 26.5%
- viability, T/C [12]: 2.82%
- viability, T/C [13]: 0.68%
- viability, T/C (second compound 10 µM, first compound 0.000316 µM): 92.9%
- viability, T/C (second compound 10 µM, first compound 0.001 µM): 75.7%
- viability, T/C (second compound 10 µM, first compound 0.00316 µM): 69.8%
- viability, T/C (second compound 10 µM, first compound 0.01 µM): 22.8%
- viability, T/C [14]: 2.54%
- viability, T/C [15]: 0.55%

SMILES: CC1COCCN1c1cc(C2(S(C)(=N)=O)CC2)nc(-c2ccnc3[nH]ccc23)n1 (configuration not stated) + NC1CC1c1ccc(-c2cccc(O)c2)cc1
- IC50 [1]: 1550 nM
- IC50 [2]: 1380 nM
- IC50 [3]: 1180 nM
- IC50 [4]: 1320 nM
- IC50 [5]: 776 nM
- viability, T/C [6]: 89.4%
- viability, T/C [7]: 108%
- viability, T/C (second compound 0.1 µM, first compound 0.316 µM): 95.3%
- viability, T/C (second compound 0.1 µM, first compound 1 µM): 58.8%
- viability, T/C (second compound 0.1 µM, first compound 3.16 µM): 33.7%
- viability, T/C (second compound 0.1 µM, first compound 10 µM): 38.1%
- viability, T/C [8]: 85.8%
- viability, T/C [9]: 85.9%
- viability, T/C (second compound 0.316 µM, first compound 0.316 µM): 72.3%
- viability, T/C (second compound 0.316 µM, first compound 1 µM): 57.7%
- viability, T/C (second compound 0.316 µM, first compound 3.16 µM): 34%
- viability, T/C (second compound 0.316 µM, first compound 10 µM): 36.4%
- viability, T/C [10]: 79.5%
- viability, T/C [11]: 73.9%
- viability, T/C (second compound 1 µM, first compound 0.316 µM): 76.5%
- viability, T/C (second compound 1 µM, first compound 1 µM): 53%
- viability, T/C (second compound 1 µM, first compound 3.16 µM): 29.1%
- viability, T/C (second compound 1 µM, first compound 10 µM): 34.1%
- viability, T/C [12]: 82.4%
- viability, T/C [13]: 77.4%
- viability, T/C (second compound 3.16 µM, first compound 0.316 µM): 73.2%
- viability, T/C (second compound 3.16 µM, first compound 1 µM): 56.7%
- viability, T/C (second compound 3.16 µM, first compound 3.16 µM): 27.9%
- viability, T/C (second compound 3.16 µM, first compound 10 µM): 32%
- viability, T/C [14]: 87.7%
- viability, T/C [15]: 81.5%
- viability, T/C (second compound 10 µM, first compound 0.316 µM): 70%
- viability, T/C (second compound 10 µM, first compound 1 µM): 45.2%
- viability, T/C (second compound 10 µM, first compound 3.16 µM): 29.1%
- viability, T/C (second compound 10 µM, first compound 10 µM): 31.1%

- IC50 (curve of compound): 250 nM and 268 nM
SMILES: O=C(C=Cc1cccc(S(=O)(=O)Nc2ccccc2)c1)NO
- viability, T/C (compound 0.00949 µM): 120% and 101%
- viability, T/C (compound 0.03 µM): 127% and 112%
- viability, T/C (compound 0.0949 µM): 114% and 105%
- viability, T/C (compound 0.3 µM): 38% and 43.9%
- viability, T/C (compound 0.949 µM): 4.5% and 5.62%
- viability, T/C (compound 3 µM): 0.23% and 0.24%
